This data set is described as follows: passive permeability, PAMPA, ADME assay (AID 1508612). As to conditions: pH 7.4, 30.0 min, 50.0 µM.

As to `CCN(CC)C(=O)c1coc(COc2ccc3c(c2)C(c2cccc(F)c2)N(C(=O)C(C)C)CC3)n1` (stereo not drawn), the Papp is more than 1000 ×10⁻⁶ cm/s.
In turn, `Nc1ccc(CNc2ccc([S+](=O)([O-])Nc3nccs3)cc2)c(O)c1` had a Papp of less than 1 ×10⁻⁶ cm/s.
For the compound `CC(C)c1ccccc1-c1ncc(F)c(NCC2CCN(c3cccnc3)CC2)n1`, the Papp was more than 1000 ×10⁻⁶ cm/s.
To `C=C1c2cccc(O)c2C(O)=C2C(=O)[C@]3(O)C(O)=C(C(N)=O)C(=O)[C@@H](N(C)C)[C@@H]3[C@@H](O)[C@H]12` belongs less than 1 ×10⁻⁶ cm/s; to `O=[N+]([O-])c1cccc(CSc2nc3ncc(Br)cc3[nH]2)c1`, 550 ×10⁻⁶ cm/s; to `CCCc1cc(=O)oc2c3c(c4c(c12)OC(C)(C)C=C4)OC(C)C(C)C3O` (stereo not drawn), more than 1000 ×10⁻⁶ cm/s.
In the case of `Fc1ccc(F)c(Nc2nc(-c3ccncc3)nc3ccccc23)c1`, the Papp amounted to 455 ×10⁻⁶ cm/s.
`O=C1CN(C(=O)CCC(=O)N2CCc3c(nc4cc(-c5ccccc5)[nH]n4c3=O)C2)c2ccccc2N1` had a Papp of less than 1 ×10⁻⁶ cm/s.
Compound `Cc1ccnc(N=C(N)N2CCN(c3cccc(C(F)(F)F)c3)CC2)c1` gave an apparent permeability (Papp) of 383 ×10⁻⁶ cm/s.
Compound `CCCCc1ccc(NC(=O)c2ccc3c(c2)N(S(C)(=O)=O)CC3)cc1` came in with a Papp of 706 ×10⁻⁶ cm/s.
`CCOC(=O)C1CCN(C(=O)C(C)(C)NC(=O)Nc2ccc(Cl)cc2Cl)CC1` registered a Papp of 725 ×10⁻⁶ cm/s. The Papp values of the last two compounds are within 1.5-fold of each other.
To `COc1ccc(-n2nc(C3CCCN(C(=O)C4CC4)C3)[nH]c2=O)cc1` (stereo not drawn) belongs 113 ×10⁻⁶ cm/s; to `Oc1cccc(-c2nc(N3CCOCC3)c3oc4ncccc4c3n2)c1`, 537 ×10⁻⁶ cm/s; to `COc1ccc(CN2CCNc3cc(Nc4ccccc4)ncc3C2)cn1`, 834 ×10⁻⁶ cm/s.
For `Cc1cn2c(N)c(Cl)cc(C(=O)NCC3CCN(CC(C)C)CC3)c2n1`, the Papp amounted to 606 ×10⁻⁶ cm/s.
The compound `C#CCNC(=O)c1nc(-c2ccc([S+](C)(=O)[O-])cc2)c2ccccn12` showed a Papp of 545 ×10⁻⁶ cm/s. This Papp and that of the compound before are within 1.5-fold of each other.
As for `O=C1Nc2ccccc2/C1=C/c1cc(Cl)c(O)c(Cl)c1`, the figure is 49 ×10⁻⁶ cm/s.
For the compound `O=C(NCCCc1ccccc1)c1cccc(-c2cc(O)c3ncccc3c2)c1`, the Papp was less than 1 ×10⁻⁶ cm/s.
Take `Cc1ccc(S(=O)(=O)Nc2ccccc2C(=O)Nc2ccc(-c3ccccc3)nc2)cc1`: the apparent permeability (Papp) is 54.3 ×10⁻⁶ cm/s.
As for `Cc1ccc(-n2ncc3c(Nc4cccc(C(=O)O)c4)ncnc32)cc1`, the figure is 13.2 ×10⁻⁶ cm/s; as for `O=C(c1cnccn1)N1CCC2(CCCN(C(c3ccccc3)c3ccccc3)C2)CC1`, 3 ×10⁻⁶ cm/s; as for `CC(=O)c1c(C)oc2ccc(N(C(=O)Oc3ccccc3)S(=O)(=O)c3ccccc3)cc12`, more than 1000 ×10⁻⁶ cm/s.
To `CC1CN(c2ccc(Nc3nc(-c4ccncc4)nc4ccccc34)cc2F)CC(C)O1` (stereo not drawn) belongs more than 1000 ×10⁻⁶ cm/s.
To `O=C(Nc1ccc(S(=O)(=O)Nc2nccs2)cc1)c1ccncc1` belongs 1.4 ×10⁻⁶ cm/s.
With `Brc1ccccc1-c1nc(NCc2ccc(-c3cccnc3)cc2)c2ccccc2n1`, the Papp was more than 1000 ×10⁻⁶ cm/s.
Consider `Oc1ccc(Nc2nc(-c3ccncc3)nc3ccccc23)cc1F`, for which the Papp worked out at 664 ×10⁻⁶ cm/s.
As to `C#CCNC(=O)c1nc(-c2ccc(Cl)nc2)c2ccccn12`, the Papp amounted to 802 ×10⁻⁶ cm/s.
As for `O=C(c1ccccc1)N1CCC(C(=O)N2CCC(N3Cc4ccccc4C3=O)CC2)CC1`, the figure is 24.9 ×10⁻⁶ cm/s; as for `Cc1ccc(OCCn2c(CCNC(=O)N3CCCCC3)nc3ccccc32)cc1`, more than 1000 ×10⁻⁶ cm/s; as for `NC1(c2ccc(NC(=O)c3ccnc(-c4cc(C(=O)O)ccn4)c3)cc2)CC1`, 8.31 ×10⁻⁶ cm/s.
`COc1cccc(CNCc2cccn2-c2nnc(N3CCN(c4ccccc4)CC3)s2)c1`: the Papp was more than 1000 ×10⁻⁶ cm/s.
To `CNC(=O)c1ccc(-c2cnc3cnc(C(=O)N(C)c4ccc(Cl)cc4)cn23)cc1` belongs 120 ×10⁻⁶ cm/s; to `CNC1(c2ccccc2Cl)CCCCC1=O` (stereo not drawn), more than 1000 ×10⁻⁶ cm/s.
To `Cc1cccc(NCc2ccc(O)c3ncccc23)c1` belongs less than 1 ×10⁻⁶ cm/s; to `C[C@@H]1Cc2c([nH]c3cc(Cl)c(F)cc23)[C@]2(N1)C(=O)Nc1ccc(Cl)cc12`, 763 ×10⁻⁶ cm/s; to `O=C(Nc1cccnc1)c1cccs1`, 56.5 ×10⁻⁶ cm/s.
On to `CCOc1ccc(CCNC(=O)c2cc3sccc3n2CCN(C)C)cc1OCC`, for which the Papp is more than 1000 ×10⁻⁶ cm/s.
In turn, `O=C(CSc1nc(-c2ccc(F)cc2)[nH]c1-c1ccc(F)cc1)Nc1ccc2c(c1)OCCO2` displayed an apparent permeability (Papp) of 11 ×10⁻⁶ cm/s.
On to `O=C(NCCc1ccccc1)C1CCN(c2nc(-c3ccc(Br)cc3)cs2)CC1`, for which the apparent permeability (Papp) is less than 1 ×10⁻⁶ cm/s.
As for `C=C1C(=O)OC2C1CCC(C)C1(O)C=CC(=O)C21C` (stereo not drawn), the figure is 64.6 ×10⁻⁶ cm/s.
Consider `Cc1ccc(C(=O)Nc2ccc(CN3CCN(C)CC3)c(C(F)(F)F)c2)cc1C#Cc1cnc2cccnn12`, for which the apparent permeability coefficient (Papp) is more than 1000 ×10⁻⁶ cm/s.
Compound `COc1ccc(-c2ccc3ncc(Nc4cccnc4OC)n3n2)cn1` yielded a Papp of more than 1000 ×10⁻⁶ cm/s.
As for `C=CC(=O)Nc1cccc(Oc2nc(Nc3ccc(N4CCN(C)CC4)cc3)ncc2Cl)c1`, the apparent permeability (Papp) is more than 1000 ×10⁻⁶ cm/s.
Take `CCCCCCCc1c(C)nc(N2CCOCC2)[nH]c1=O`: the Papp is more than 1000 ×10⁻⁶ cm/s.
Regarding `COc1ccccc1-c1csc(N2CCC(C(N)=O)CC2)n1`, the Papp came to 693 ×10⁻⁶ cm/s.
As for `O=S(=O)(Nc1cccc2ccncc12)c1ccc(NCc2cccc(Cl)c2O)cc1`, the Papp was more than 1000 ×10⁻⁶ cm/s.
The compound `O=C(Nc1ccc(-c2ccccc2)cc1)[C@H](Cc1ccc(O[S+](=O)([O-])c2cccc3cnccc23)cc1)N[S+](=O)([O-])c1cccc2cnccc12` yielded a Papp of 18.5 ×10⁻⁶ cm/s.
`CN1CCC(N(Cc2cccs2)c2ccccc2)CC1`: the Papp was more than 1000 ×10⁻⁶ cm/s.
For `Cc1ccc(CSCc2ccc(C(=O)NC3CC3)o2)cc1`, the Papp stood at 833 ×10⁻⁶ cm/s.
As for `COc1cc(/C=C(\C#N)C(=O)c2ccc(O)c(O)c2)cc(I)c1O`, the Papp is less than 1 ×10⁻⁶ cm/s.
In turn, `O=C(CCCc1ccc2cccnc2n1)NCc1cc(-c2ccc(F)c(C(F)(F)F)c2)no1` registered a Papp of more than 1000 ×10⁻⁶ cm/s.
Take `Cc1ccc(S(=O)(=O)Nc2cnccc2C(=O)Nc2nc(-c3cnn(C)c3)cs2)cc1`: the Papp worked out at 54.9 ×10⁻⁶ cm/s.
For the compound `O=C(O)c1ccccc1C(=O)Nc1ccc(-c2ccccc2)cc1`, the Papp stood at 3.49 ×10⁻⁶ cm/s.
To `CCOc1ccccc1C(=O)Nc1cccnc1C(=O)Nc1cccc(S(=O)(=O)C(F)(F)F)c1` belongs 8.1 ×10⁻⁶ cm/s.
On to `O=C(Nc1ccc(N2CCN(C(=O)c3ccccc3F)CC2)cc1)c1cncc(Br)c1`, for which the apparent permeability coefficient (Papp) is more than 1000 ×10⁻⁶ cm/s.
Regarding `COC(=O)c1cc(Cl)ccc1NC(=O)CSc1ncc(S(=O)(=O)c2ccc(Br)cc2)c(=O)[nH]1`, the Papp was 68.7 ×10⁻⁶ cm/s.
Compound `O=C(Nc1ccc(F)cc1F)c1cc(-c2ccc[nH]2)n[nH]1` yielded a Papp of 103 ×10⁻⁶ cm/s.
`FC(F)(F)c1cccc(N2CCN(C(=S)Nc3ccccn3)CC2)c1` displayed a Papp of more than 1000 ×10⁻⁶ cm/s.
As for `NC1CCN(C(=O)C2CCCN(c3nc(-c4ccccc4)nc4c3CCC4)C2)CC1` (stereo not drawn), the Papp turned out to be 475 ×10⁻⁶ cm/s.
For the compound `Cc1noc(-c2cn(C3CCN(C(=O)c4ccc(OC(F)(F)F)cc4)CC3)nn2)n1`, the Papp is 10.2 ×10⁻⁶ cm/s. This Papp lies about 47-fold lower than the previous one.
On to `O=c1cc(CN2CCCN(c3ccc(C(F)(F)F)cn3)CC2)nc2ccccn12`, for which the Papp is more than 1000 ×10⁻⁶ cm/s.
To `CC(C=CC(=O)NO)=C[C@@H](C)C(=O)c1ccc(N(C)C)cc1` belongs 335 ×10⁻⁶ cm/s; to `COc1c(Cl)cc2c([nH]c3cnccc32)c1NC(=O)c1cccnc1C`, 440 ×10⁻⁶ cm/s; to `N=c1c2ccccc2nnn1-c1ccc(C(F)(F)F)cc1`, 148 ×10⁻⁶ cm/s.
For the compound `COc1ccc(C)cc1NC(=O)c1cnc(-c2ccc(F)cc2)nc1-c1ccncc1`, the Papp came to 130 ×10⁻⁶ cm/s.
As for `CCn1c(-c2nonc2N)nc2cnc(Oc3cccc(NC(=O)c4ccc(OCCN5CCOCC5)cc4)c3)cc21`, the figure is less than 1 ×10⁻⁶ cm/s; as for `CCOc1ccc(-c2csc(N3CCC(C(N)=O)CC3)n2)cc1`, more than 1000 ×10⁻⁶ cm/s; as for `COc1ccc(-c2noc([C@@H]3Cc4nc[nH]c4CN3C(=O)NC3CCCCC3)n2)cc1`, 517 ×10⁻⁶ cm/s.
Regarding `COC(=O)CNC(=O)c1nc(-c2ccc([S+](C)(=O)[O-])cc2)c2ccccn12`, the apparent permeability coefficient (Papp) is 330 ×10⁻⁶ cm/s.
As for `FC(F)(F)Oc1cccc(Nc2nc(-c3ccncc3)nc3ccccc23)c1`, the figure is 226 ×10⁻⁶ cm/s; as for `O=C(Nc1ccc(-c2nc3cc(NC(=O)c4ccccc4Cl)ccc3o2)cc1)c1ccccc1Cl`, 176 ×10⁻⁶ cm/s; as for `Ic1ccccc1CNC1C2CCN(CC2)C1C(c1ccccc1)c1ccccc1` (stereo not drawn), more than 1000 ×10⁻⁶ cm/s.
With `COc1ccc(C(=O)N[C@@H]2CCC[C@@H]2C(=O)N2CCC(Cc3ccccc3)CC2)cc1`, the Papp was more than 1000 ×10⁻⁶ cm/s.
As to `CC(C)C(=O)Nc1cccc(NC(=O)c2cc3ccccc3o2)c1`, the Papp stood at 874 ×10⁻⁶ cm/s.
Take `NC(=O)COCCN1CCN(C(c2ccccc2)c2ccc(Cl)cc2)CC1` (stereo not drawn): the Papp was 359 ×10⁻⁶ cm/s.
To `CC(=O)c1ccc(N2CCN(S(=O)(=O)c3ccc4c(c3)n(C)c(=O)n4C)CC2)cc1` belongs 306 ×10⁻⁶ cm/s.
On to `CCOc1ccc(CCNC(=O)c2ccnn2Cc2ccccn2)cc1OCC`, for which the Papp was found to be 177 ×10⁻⁶ cm/s.
In turn, `COc1ccc(-n2nc(C3CCN(C(=O)Cc4ccc(F)cc4)CC3)[nH]c2=O)cc1` had an apparent permeability coefficient (Papp) of 540 ×10⁻⁶ cm/s.
To `O=C(Cc1nc2ccc(Cl)cc2[nH]1)Nc1ccc(S(=O)(=O)Nc2nccs2)cc1` belongs less than 1 ×10⁻⁶ cm/s; to `COc1cccc(C(=O)Nc2nc(-c3nnn(-c4ccccc4C(F)(F)F)c3C)ns2)c1`, 383 ×10⁻⁶ cm/s.
With `O=S(=O)(Nc1nccs1)c1ccc(NCc2cccc(F)c2O)cc1`, the Papp came to 2.11 ×10⁻⁶ cm/s.
Compound `Cc1ccccc1C(=O)Nc1ccc2c(c1)CCCN2C(=O)c1cccs1` came in with a Papp of 687 ×10⁻⁶ cm/s.
As to `Nc1nc2c(s1)C(c1ccc(F)cc1F)CC(=O)N2` (stereo not drawn), the Papp came to 181 ×10⁻⁶ cm/s. Compared with the last compound, the Papp is about 3.8-fold lower.
Compound `COc1ccc(O)c2c(=O)c3c(OC)cc4c(c3oc12)C1C=COC1O4` (stereo not drawn) showed a Papp of 890 ×10⁻⁶ cm/s.
`c1ccc2[nH]c(Nc3nc(-c4ccncc4)nc4ccccc34)nc2c1` displayed a Papp of more than 1000 ×10⁻⁶ cm/s.
`Cc1cc(C)nc(NC(=S)N2CCN(c3cccc(OC(F)F)c3)CC2)c1` came in with a Papp of 852 ×10⁻⁶ cm/s.
`Cc1ccccc1C(=O)N1CCc2cc(-n3cc(NC(=O)Cc4ccccc4)cn3)ccc21` returned a Papp of 82.6 ×10⁻⁶ cm/s.
`COc1ccc(-c2ccc(C(=O)NC3CC(c4cc(=O)[nH]c(N)n4)C3)o2)cc1` (stereo not drawn) gave a Papp of 20.9 ×10⁻⁶ cm/s.
To `O=C(Nc1nc(-c2ccccc2)cs1)c1ccncc1NS(=O)(=O)c1cccnc1` belongs 50.8 ×10⁻⁶ cm/s; to `COc1cc(C(=O)NC2CCCc3c2[nH]c2ccccc32)cc(OC)c1OC` (stereo not drawn), 189 ×10⁻⁶ cm/s.
The compound `O=C(c1ccncc1)N1CCC2(CCCN(C(c3ccccc3)c3ccccc3)C2)CC1` registered a Papp of more than 1000 ×10⁻⁶ cm/s.
To `Cn1ccc2c(C(=O)NCC3CCC(=O)N3)nc(-c3ccccc3C#N)cc21` (stereo not drawn) belongs 265 ×10⁻⁶ cm/s.
`CCOC(=O)N1CCN(Cc2nc3c(c(=O)n(C)c(=O)n3C)n2Cc2cccc(C)c2)CC1` gave a Papp of 477 ×10⁻⁶ cm/s.
